The target of this assay is GluA1o-γ8 (GRIA1o-CACNG8 fusion construct) (Homo sapiens (Human), UniProt P42261+Q8WXS5). The assay is described as follows: Calcium flux assay (FLIPR), inhibition of TARP γ8 dependent AMPA receptor activity. It is filed as cell-based. Particulars: GluA1o-γ8 (GRIA1o-CACNG8 fusion) in HEK293 cells, calcium flux after 15 μM glutamate. A digest of the protocol: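 Glutamate (15 μM) was added to a stable HEK293 line carrying the GluA1o–γ8 fusion, which had been preincubated with compound and calcium dye in HEPES buffer, pH 7.4. Normalized FLIPR fluorescence (no compound vs 10 μM CP465022) was fitted with four parameters; pIC50 is the midpoint's negative log.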
Sequence of GluA1o-γ8 (GRIA1o-CACNG8 fusion construct) (P42261 other isoform, or with tags, fused parts or gaps): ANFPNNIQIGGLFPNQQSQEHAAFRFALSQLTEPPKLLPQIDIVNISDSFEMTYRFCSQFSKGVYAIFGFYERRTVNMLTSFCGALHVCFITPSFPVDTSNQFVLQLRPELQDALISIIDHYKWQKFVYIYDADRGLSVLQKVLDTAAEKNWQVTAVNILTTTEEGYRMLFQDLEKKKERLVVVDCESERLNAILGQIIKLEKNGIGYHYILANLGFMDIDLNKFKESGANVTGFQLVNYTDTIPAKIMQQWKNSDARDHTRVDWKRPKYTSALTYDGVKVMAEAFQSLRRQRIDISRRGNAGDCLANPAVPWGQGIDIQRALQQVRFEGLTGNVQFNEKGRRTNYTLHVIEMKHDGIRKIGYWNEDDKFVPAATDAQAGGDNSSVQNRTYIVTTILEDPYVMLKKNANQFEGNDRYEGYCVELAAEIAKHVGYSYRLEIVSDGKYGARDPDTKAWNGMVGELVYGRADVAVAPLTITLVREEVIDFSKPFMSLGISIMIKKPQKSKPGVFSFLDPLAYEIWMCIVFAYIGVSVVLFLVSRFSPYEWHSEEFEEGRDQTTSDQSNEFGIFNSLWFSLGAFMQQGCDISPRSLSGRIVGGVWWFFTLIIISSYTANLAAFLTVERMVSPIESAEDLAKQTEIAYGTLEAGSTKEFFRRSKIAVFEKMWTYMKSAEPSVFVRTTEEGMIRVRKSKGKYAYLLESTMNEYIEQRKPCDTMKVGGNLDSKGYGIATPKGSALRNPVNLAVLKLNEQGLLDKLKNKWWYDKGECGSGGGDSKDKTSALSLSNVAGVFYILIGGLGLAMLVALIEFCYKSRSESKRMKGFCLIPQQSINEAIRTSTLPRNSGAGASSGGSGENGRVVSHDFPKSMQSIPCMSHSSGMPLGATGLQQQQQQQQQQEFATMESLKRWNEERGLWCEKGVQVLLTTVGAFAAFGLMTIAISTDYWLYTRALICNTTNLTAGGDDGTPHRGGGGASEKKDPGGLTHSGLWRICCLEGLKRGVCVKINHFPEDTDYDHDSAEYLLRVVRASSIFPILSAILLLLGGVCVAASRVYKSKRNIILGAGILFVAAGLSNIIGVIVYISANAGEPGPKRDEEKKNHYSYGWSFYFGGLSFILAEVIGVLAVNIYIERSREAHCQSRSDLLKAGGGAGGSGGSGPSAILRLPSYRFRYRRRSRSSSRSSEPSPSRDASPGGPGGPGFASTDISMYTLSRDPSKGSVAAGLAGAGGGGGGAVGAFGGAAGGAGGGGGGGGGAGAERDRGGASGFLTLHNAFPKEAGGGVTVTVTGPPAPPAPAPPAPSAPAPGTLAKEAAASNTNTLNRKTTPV
For orientation: Calcium flux is commonly read through the fluorescence of an indicator in the cells.
Consider `Fc1ccc(-c2cc3cccnc3n2-c2ccc3c(c2)CCN3)cc1` [Example 344, 2-(4-Fluorophenyl)-1-indolin-5-yl-pyrrolo[2,3-b]pyridine], for which the IC50 – broadly, the concentration that inhibits the measured activity by half – was 501 nM. Consider `Cc1nc2ccc(C(F)(F)F)nc2n1-c1ccc2c(c1)CC(=O)N2` [Example 47, 5-[2-Methyl-5-(trifluoromethyl)imidazo[4,5-b]pyridin-3-yl]indolin-2-one], for which the IC50 was 63.1 nM. The same measure for `Cc1ccc2nc(-c3ccnc(F)c3)n(-c3cc(C)c4[nH]ncc4c3)c2n1` [Example 213, 2-(2-Fluoro-4-pyridyl)-5-methyl-3-(7-methyl-1H-indazol-5-yl)imidazo[4,5-b]pyridine]: 0.501 nM.

In the case of `CC(C)c1cc2ccc(C(F)(F)F)nc2n1-c1cnc2[nH]ccc2c1` [Example 391, 2-Isopropyl-1-(1H-pyrrolo[2,3-b]pyridin-5-yl)-6-(trifluoromethyl)pyrrolo[2,3-b]pyridine], the IC50 is 0.631 nM.

On to `O=C1Cc2cc(-n3c(C(F)F)nc4ccc(C(F)(F)F)nc43)ccc2N1` [Example 94, 5-[2-(Difluoromethyl)-5-(trifluoromethyl)imidazo[4,5-b]pyridin-3-yl]indolin-2-one], for which the IC50 was 50.1 nM. The same measure for `Fc1ccc(-c2nc3cccnc3n2-c2ccc3[nH]ncc3c2)cc1` [Example 22, 2-(4-Fluorophenyl)-3-(1H-indazol-5-yl)imidazo[4,5-b]pyridine]: 31.6 nM. In the case of `O=C1Cc2cc(-n3c(C4CC4)c(Br)c4ccc(C(F)(F)F)nc43)ccc2N1` [Example 389, 5-[3-Bromo-2-cyclopropyl-6-(trifluoromethyl)pyrrolo[2,3-b]pyridin-1-yl]indolin-2-one] it was 0.0631 nM. Turning to `Cc1cc(-n2c(C(F)F)nc3ccc(C(F)(F)F)nc32)cc2c1NC(=O)C2` [Example 287, 5-[2-(Difluoromethyl)-5-(trifluoromethyl)imidazo[4,5-b]pyridin-3-yl]-7-methyl-indolin-2-one], the IC50 is 0.158 nM. Consider `CC(C)(C)Cc1nc2ccc(C(F)(F)F)nc2n1-c1ccc2c(c1)CC(=O)N2` [Example 97, 5-[2-(2,2-Dimethylpropyl)-5-(trifluoromethyl)imidazo[4,5-b]pyridin-3-yl]indolin-2-one], for which the IC50 is 251 nM. For `COc1nc2ccc(C(F)(F)F)nc2n1-c1ccc2[nH]c(=O)sc2c1` [Example 239, 6-[2-Methoxy-5-(trifluoromethyl)imidazo[4,5-b]pyridin-3-yl]-3H-1,3-benzothiazol-2-one], the IC50 was 2 nM.

Consider `Cc1ccc2nc(C3CC3)n(-c3ccc4[nH]ncc4c3)c2n1` [Example 147, 2-Cyclopropyl-3-(1H-indazol-5-yl)-5-methyl-imidazo[4,5-b]pyridine], for which the IC50 was 10 nM.

`CC1(c2nc3ccc(C(F)(F)F)nc3n2-c2ccc3c(c2)CC(=O)N3)COC1` [Example 76, 5-[2-(3-Methyloxetan-3-yl)-5-(trifluoromethyl)imidazo[4,5-b]pyridin-3-yl]indolin-2-one]: the IC50 is 501 nM.

Turning to `Cc1cccc(-c2nc3ccc(C(F)(F)F)nc3n2-c2ccc3[nH]ncc3c2)c1` [Example 122, 3-(1H-Indazol-5-yl)-2-(m-tolyl)-5-(trifluoromethyl)imidazo[4,5-b]pyridine], the IC50 is 0.316 nM.

Regarding `Fc1ccc(-c2nc3ccc(C(F)F)nc3n2-c2cc(Cl)c3[nH]ncc3c2)cc1` [Example 229, 3-(7-Chloro-1H-indazol-5-yl)-5-(difluoromethyl)-2-(4-fluorophenyl)imidazo[4,5-b]pyridine], the IC50 was 0.00631 nM. With `CC(C)c1nc2ccc(C(F)(F)F)nc2n1-c1ccc2[nH]c(=O)sc2c1` [Example 45, 6-[2-Isopropyl-5-(trifluoromethyl)imidazo[4,5-b]pyridin-3-yl]-3H-1,3-benzothiazol-2-one], the IC50 was 0.398 nM.

For the molecule `Cc1ccc2nc(C(F)(F)F)n(-c3ccc4[nH]ncc4c3)c2n1` [Example 151, 3-(1H-Indazol-5-yl)-5-methyl-2-(trifluoromethyl)imidazo[4,5-b]pyridine], the IC50 is 12.6 nM. For the molecule `Fc1ccc(-c2nc3ccc(C(F)(F)F)nc3n2-c2ccc3[nH]ncc3c2)cc1` [Example 110, 2-(4-Fluorophenyl)-3-(1H-indazol-5-yl)-5-(trifluoromethyl)imidazo[4,5-b]pyridine], the IC50 was 0.316 nM.

`CC(F)(F)c1nc2ccc(C(F)(F)F)nc2n1-c1cc(Cl)c2[nH]ncc2c1` [Example 267, 3-(7-Chloro-1H-indazol-5-yl)-2-(1,1-difluoroethyl)-5-(trifluoromethyl)imidazo[4,5-b]pyridine]: the IC50 is 0.0158 nM. In the case of `CC(C)c1nc2ccc(C(F)(F)F)nc2n1-c1ccc2[nH]nc(Br)c2c1` [Example 298, 3-(3-Bromo-1H-indazol-5-yl)-2-isopropyl-5-(trifluoromethyl)imidazo[4,5-b]pyridine] it was 79.4 nM; in that of `FC(F)(F)c1ccc2nc(-c3ccncc3)n(-c3ccc4[nH]ncc4c3)c2n1` [Example 124, 3-(1H-Indazol-5-yl)-2-(4-pyridyl)-5-(trifluoromethyl)imidazo[4,5-b]pyridine], 12.6 nM; in that of `CC(C)c1nc2ccc(C(F)(F)F)nc2n1-c1cnc2[nH]ccc2c1` [Example 303, 2-Isopropyl-3-(1H-pyrrolo[2,3-b]pyridin-5-yl)-5-(trifluoromethyl)imidazo[4,5-b]pyridine], 31.6 nM. As to `Cc1ccc2cc(C3CC3)n(-c3ccc4c(c3)CC(=O)N4)c2n1` [Example 380, 5-(2-Cyclopropyl-6-methyl-pyrrolo[2,3-b]pyridin-1-yl)indolin-2-one], the IC50 was 1 nM.

Regarding `O=c1[nH]c2ccc(-n3c(C4CCC4)nc4ccc(C(F)(F)F)nc43)cc2o1` [Example 80, 6-[2-Cyclobutyl-5-(trifluoromethyl)imidazo[4,5-b]pyridin-3-yl]-3H-1,3-benzoxazol-2-one], the IC50 was 2 nM. On to `O=C(Nc1ccccc1)c1nc2ccc(C(F)(F)F)nc2n1-c1ccc2[nH]ncc2c1` [Example 85, 3-(1H-Indazol-5-yl)-N-phenyl-5-(trifluoromethyl)imidazo[4,5-b]pyridine-2-carboxamide], for which the IC50 is 79.4 nM.

On to `Cc1cc(-n2c(C=O)cc3ccc(C(F)(F)F)nc32)cc2c1NC(=O)C2` [Example 422, 1-(7-Methyl-2-oxoindolin-5-yl)-6-(trifluoromethyl)-1H-pyrrolo[2,3-b]pyridine-2-carbaldehyde], for which the IC50 is 0.316 nM. In the case of `FC(F)(F)c1ccc2nc(C3CCC3)n(-c3cc(Cl)c4[nH]ncc4c3)c2n1` [Example 308, 3-(7-Chloro-1H-indazol-5-yl)-2-cyclobutyl-5-(trifluoromethyl)imidazo[4,5-b]pyridine] it was 0.00501 nM. On to `Fc1ccc(-c2nc3ccc(Cl)nc3n2-c2ccc3[nH]ncc3c2)cc1` [Example 7, 5-Chloro-2-(4-fluorophenyl)-3-(1H-indazol-5-yl)imidazo[4,5-b]pyridine], for which the IC50 is 2 nM.

As to `Cc1cc(-n2c(-c3ccc(F)cc3)nc3ccc(C(F)F)nc32)cc2cn[nH]c12` [Example 228, 5-(Difluoromethyl)-2-(4-fluorophenyl)-3-(7-methyl-1H-indazol-5-yl)imidazo[4,5-b]pyridine], the IC50 was 0.0158 nM.

Take `FC(F)c1nc2ccc(C(F)(F)F)nc2n1-c1ccc2[nH]ncc2c1` [Example 90, 2-(Difluoromethyl)-3-(1H-indazol-5-yl)-5-(trifluoromethyl)imidazo[4,5-b]pyridine]: the IC50 is 3.16 nM.

(Values after patent US11312712B2, “Azabenzimidazoles and their use as AMPA receptor modulators” (Janssen Pharmaceutica NV, priority 2015, dated 2022).)
